Data reported in PubChem BioAssay AID449762 (Southern Research Specialized Biocontainment Screening …, 2010).
Inconclusive results are not listed.

Tested on: M. tuberculosis H37Rv growth inhibition, 7H9 media
Test: M. tuberculosis growth inhibition, HTS (AID 449762);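 further: bacterial growth assessed after seven days of incubation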
Details: for IC90: measured here: IC90 growth inhibition

| SMILES | IC50 | IC90 |
| --- | --- | --- |
| CCCCOC(=O)c1c(C)oc2ccc(NS(=O)(=O)c3ccc4c5c(cccc35)C(=O)N4)cc12 | 78.7 µM | > 100 µM |
| O=S(Cc1ccc(Br)cc1)Cc1nnc(SCc2ccc(Cl)cc2)n1-c1ccccc1 (configuration not stated) | 91.1 µM | > 100 µM |
| COc1ccc(OC)c(Nc2nc(-c3sc(C)nc3C)cs2)c1 | 51.7 µM | > 100 µM |
| CC(OC(=O)COc1ccc(Nc2ccccc2)cc1)C(=O)N(C)c1ccccc1 (configuration not stated) | < 0.2 µM | 4.17 µM |
| CCCC[C@@H](CN[C@H](C)CNC)NCC1CCC(C(C)(C)C)CC1 (some centres not stated) | 18 µM | 22.7 µM |
| Cc1ccc2c(c1)c1c3n2CCN=C3CCC1 | 10.3 µM | 19 µM |
| CN1CC=C(/C=C/c2ccc(-c3ccccc3)cc2)CC1 | 20.1 µM | 26.9 µM |
| CC[N+](C)(CC)CCCCOc1ccc2c(c1)C(=O)c1cc(OCCCC[N+](C)(CC)CC)ccc1-2 | 0.96 µM | 1.52 µM |
| CCCCS/C(N)=N/N=C/c1cc(C)ccc1O | 12.3 µM | 13.9 µM |
| COc1ccccc1/C=C/C1=NC(=C\C=C/c2ccccc2)/C(=O)O1 |  | > 100 µM |
| CCOC(=O)c1ccc(N=C2C(=S)N(c3ccc(C(=O)OCC)cc3)C(=N)N2/N=C/c2ccccc2)cc1 | 68.9 µM | > 100 µM |
| CCOc1ccc(N/C(C)=C/C(=O)c2ccc3c(c2)OCCO3)cc1 | 11.6 µM | 47.2 µM |
| CCCCCn1c(=O)c2ccccc2n2c(CCl)nnc12 | 0.48 µM | 2.21 µM |
| CC(C)Cn1c(N2CCN(C(=O)/C=C/c3ccccc3)CC2)nc2ccccc21 | 23.7 µM | 27.2 µM |
| Cc1ccc(C(=O)n2c(N)nc3ccccc32)cc1 | 43.8 µM | > 100 µM |
| COC(=O)c1c(NC(=O)C(=O)N2CCCC2)sc2c1CC(C)(C)OC2 | 9.46 µM | 27.7 µM |
| CCOC(=O)COc1ccc(C2CC(C)=NN2c2ccccc2)cc1 (configuration not stated) | 2.81 µM | 17.7 µM |
| COc1nc(-c2ccccc2)cc(-c2ccc(OC)c(OC)c2)n1 | 45.3 µM | > 100 µM |
| CCOC(=O)c1c(NC(=O)C(NCCN(C)C)c2ccccc2)sc2c1CCCC2 (configuration not stated) | 4.75 µM | 10.1 µM |
| CC(C)(C)c1ccc(C(=O)NNc2cc(N3CCCCC3)nc(N3CCCCC3)n2)cc1 | 60.6 µM | 74.8 µM |
| Cc1ccc2c(c1)C1C[N+](C)(CC(=O)c3ccc(Cl)cc3Cl)CCC1N2C(=O)c1ccc(F)cc1 (configuration not stated) | 23.9 µM | 27.1 µM |
| COc1ccc(C(=O)/C=C/Sc2nc3ccccc3o2)cc1 | 37.8 µM | > 100 µM |

| SMILES | IC50 | IC90 |
| --- | --- | --- |
| Cc1ccc(Cl)cc1N1CCN(CC(=O)NC2CCCc3ccccc32)CC1 (configuration not stated) | 31.5 µM | 46.1 µM |
| CCc1cccc2c(=O)c(C(=O)N3CCOCC3)c[nH]c12 | 6.62 µM | 14.2 µM |
| O=C(NC1CCCC(C(F)(F)F)C1)c1ccc([N+](=O)[O-])o1 (configuration not stated) | 2.71 µM | 12.3 µM |
| COc1ccc(-c2csc3nc(-c4ccccc4OC)oc(=O)c23)cc1 | < 0.2 µM | 24.1 µM |
| O=C(NCc1nnnn1-c1ccc(F)cc1)c1ccc([N+](=O)[O-])o1 | 16.5 µM | 74.1 µM |
| CN1CCN(c2cc(-c3ccccc3)nc3cc(-c4ccc(F)cc4)nn23)CC1 | 11.4 µM | 15.7 µM |
| COc1cc2ccccc2cc1C(=O)Nc1ccc(Cc2ccncc2)cc1 | 2.26 µM | 16.8 µM |
| CCOC(=O)CSc1cc(=O)n(C)c2cc(Cl)ccc12 | < 0.2 µM | 73.9 µM |
| O=c1c(Cl)c2oc3ccccc3nc-2c2ccccc12 | 9.38 µM | 11.9 µM |
| CCCOc1ccc2oc(=O)c3c(c2c1)CCCN3C(=O)CN1CCN(c2ncccn2)CC1 | 20.8 µM | 33.8 µM |
| CCCSc1nnc(Sc2nnnn2-c2ccccc2)s1 | 10.2 µM | 33 µM |
| O=C(c1ccco1)N1CCN(C(=O)C2CC(c3ccc(Cl)c(Cl)c3)=NO2)CC1 (configuration not stated) | 3.88 µM | 11 µM |
| Cc1ccc2[nH]c(C)c(CCNC(=O)c3cc4cc([N+](=O)[O-])ccc4oc3=O)c2c1 | 8.49 µM | 16.5 µM |
| C#CCn1c(=NC(=O)c2cc(Cl)sc2Cl)sc2cc(S(N)(=O)=O)ccc21 | 3.37 µM | > 100 µM |
| C/C(CC(=O)Nc1ccc2c(c1)OCCO2)=N\NC(=O)c1ccccc1F | 6.94 µM | > 100 µM |
| Cn1cc(C(=O)c2ccc(Cl)cc2)cc1-c1nc2ccccc2n1C | 13.4 µM | 27.1 µM |
| CC(Oc1ccc2ccccc2c1)C(=O)NNC(=S)NC(=O)c1ccco1 (configuration not stated) | 6.06 µM | 45 µM |
| c1ccc(CN2CCC3(CCCc4ccccc43)CC2)cc1 | 10.3 µM | 13.6 µM |
| Cc1ccc(N/N=C/C=C/c2ccco2)cc1 | 61.2 µM | 98.2 µM |
| O=C(/C=C/c1ccc(OCCCF)cc1)Nc1ccnc(-c2ccncc2)n1 | 37.5 µM | 68.8 µM |
| CCCCn1c(=O)c(C(=O)Nc2ncccc2C)c(O)c2ccccc21 | 10.3 µM | 15.8 µM |
| C/C(=N\Nc1ccc(S(=O)(=O)N2CCCCC2)cn1)c1cccc(Br)c1 | 32.7 µM | > 100 µM |

| SMILES | IC50 | IC90 |
| --- | --- | --- |
| Cc1ccc2c(c1)nnn2C1CCN(CC(=O)N2CCN(c3ccc(F)cc3)CC2)CC1 | 35.3 µM | > 100 µM |
| Cn1c(NC(=S)Nc2ccccc2)nc2ccccc21 | 3.71 µM | 6.27 µM |
| C/C(=N\NC(=S)Nc1cccc(C)c1)c1cccc(N)c1 | 25.8 µM | 30.4 µM |
| Nc1cc([N+](=O)[O-])ccc1Nc1ccc(O)cc1 | 30.4 µM | 34 µM |
| CN(C)CCOc1ccc(-c2c(-c3ccsc3)sc3ccccc23)cc1 | 13.2 µM | 15.5 µM |
| Cc1ccc(-c2csc3nc4c5ccccc5c(NCCCN5CCOCC5)nn4c(=O)c23)cc1 | 24.7 µM | 27.7 µM |
| COc1cccc2c1C(=O)c1c(O)c3c(c(O)c1C2=O)C[C@@](O)(C(=O)CO)C[C@@H]3O[C@H]1C[C@H](N)[C@@H](O)[C@H](C)O1 | 2.64 µM | 4.86 µM |
| CCCCCCC#Cc1ccc2c(c1)COc1c3ccccc3nn1-2 | 93.8 µM | > 100 µM |
| N#CCCN(C(=O)COC(=O)CCc1c[nH]c2ccccc12)c1ccc(F)cc1 | 30.7 µM | 70.8 µM |
| Cc1ccc(C)c(N2CCN(C(=S)Nc3ccc4nc(N5CCN(C)CC5)cc(C)c4c3)CC2)c1 | 38.7 µM | 50.9 µM |
| O=[N+]([O-])c1ccc(COc2ccc(-c3[nH]ncc3-c3ccc(Cl)cc3)c(O)c2)cc1 | 67.1 µM | > 100 µM |
| O=C(Nc1cccnc1Cl)c1cc(-c2ccco2)on1 | 41.4 µM | > 100 µM |
| COc1ccc(-c2csc3ncnc(N4CCN(c5ccccc5OC)CC4)c23)cc1 | 23.1 µM | 26.2 µM |
| Cc1ncsc1CCOC(=O)c1ccc([N+](=O)[O-])cc1 | 8.11 µM | > 100 µM |
| O=C(NNc1nc2ccccc2s1)c1ccccc1F | 22.2 µM | > 100 µM |
| C=CCN(C(=O)CSc1nc2c(sc3ccccc32)c(=O)n1CCN(CC)CC)c1ccccc1 | 29 µM | 36 µM |
| O=C(CN1CCN(C(=O)COc2cccc(F)c2)CC1)Nc1ccc(Cl)c(C(F)(F)F)c1 | 49 µM | 55.4 µM |
| O=C1N=C(N2CCC(Cc3ccccc3)CC2)S/C1=C/c1cn[nH]c1-c1ccccc1 | 27.5 µM | > 100 µM |
| C=C1C(=O)[C@@]23[C@H](O)C[C@@H]4C(C)(C)CC[C@H](O)[C@@]4(C)[C@@H]2CC[C@@H]1[C@H]3O | 3.04 µM | 4.05 µM |
| CC1(c2cc([N+](=O)[O-])cc([N+](=O)[O-])c2)CC(C)(C)N(C(=O)c2ccccc2)c2ccccc21 (configuration not stated) | 12.1 µM | 19.4 µM |
| CC1C/C(=C\c2cccnc2)C(=O)/C(=C/c2cccnc2)C1 (configuration not stated) | 3.38 µM | 8.85 µM |
| Cc1cc(NC(=O)c2cc(-c3ccncc3)nc3c(C)cccc23)no1 | 46.5 µM | > 100 µM |

| SMILES | IC50 | IC90 |
| --- | --- | --- |
| Cc1nc(-c2ccc(Cl)cc2)sc1C1(C)CC(c2ccc(C#N)cc2)=NO1 (configuration not stated) | 51.4 µM | > 100 µM |
| COc1ccc(C(=O)/C=C/c2cc(OC)c(O)c(OC)c2)c(F)c1 | 34.6 µM | 67 µM |
| CN(C)C/C=C/C(=O)Nc1cccc(-c2c[nH]c3ncnc(Oc4ccc(NC(=O)CC(=O)Nc5ccc(F)cc5)cc4F)c23)c1 | 7.38 µM | 14.7 µM |
| COc1ccc(N(CC(=O)Nc2ccccc2C(N)=O)S(=O)(=O)c2ccc(C)c([N+](=O)[O-])c2)cc1 | 87.7 µM | > 100 µM |
| CC(=O)C1=C(C)NC(SCC(=O)c2ccc(F)cc2)=C(C#N)C1c1ccco1 (configuration not stated) | 46.1 µM | 51 µM |
| CCCn1nc(C(=O)NNC(=O)c2ccc(C)c(C)c2)c2ccccc2c1=O | 11.2 µM | 15.9 µM |
| Cc1c(C(=O)Nc2nc3ccccc3[nH]2)oc2c(Cl)cccc12 | 68 µM | > 100 µM |
| CCOc1ccc(N=CC2=C(O)CC(c3ccco3)CC2=O)cc1 (configuration not stated) | 80.4 µM | > 100 µM |
| Cn1nc(-c2ccc(N3CCCCC3)c(NC(=O)c3ccco3)c2)c2ccccc2c1=O | 2.32 µM | 16.1 µM |
| Cc1cc2nc(/N=C(\N)NC(=O)C(C)C)nc(C)c2cc1C | 4.67 µM | 61.2 µM |
| CC(C)(C)NC(=O)COC(=O)c1cc(Br)ccc1Cl | 27.8 µM | 65.1 µM |
| CCOc1ccccc1NC(=O)C12CC3CC(C1)CC(c1ccc(C)cc1)(C3)C2 | 30.1 µM | > 100 µM |
| N=c1oc2cc(O)ccc2cc1C(=O)Nc1ccc(Br)cc1 | 0.86 µM | 4.2 µM |
| CCOC(=O)/C(=N/Nc1ccc(OC)cc1)N1CCCc2ccccc21 | 78.1 µM | > 100 µM |
| CCN(CC(=O)NCc1cccs1)C(=O)c1ccc([N+](=O)[O-])o1 | 19 µM | 58.3 µM |
| CCOC(=O)CN(C#N)c1nc(N(C)C)nc(N(C)C)n1 | 11.1 µM | 12.5 µM |
| O=C1c2ccccc2C(=O)N1Nc1ccccc1 |  | > 100 µM |
| COc1ccccc1/C(C)=N/NC(=S)NCc1ccccc1 | 23.3 µM | 26.6 µM |
| Cc1cc(-c2cc(-c3ccccc3)on2)nc(NC2CCCC2)n1 | 45.8 µM | 53.9 µM |
| O=C(CCl)NN=C(c1ccccc1)c1ccccc1 | 0.52 µM | 1.89 µM |
| CCn1nc(NC(=O)c2ccncc2)c2cc3cc(C)ccc3nc21 | 4.47 µM | 47.3 µM |
